Results: US12716050B2, “Two methods for preparing universal microbial medium by eutectic system-based cellulose liquefaction” (Xinjiang University, priority 2021, dated 2026)
Read-outs that look alike come from different tables or passages of the source.

What was measured:
[1] = Screening of ionic liquids for dissolving microcrystalline cellulose; assay type: physicochemical
Escherichia coli = conditions: LB solid medium, 48 h
Excerpt: Therefore, a purpose of this example is to screen a concentration range of the ionic liquid contained in the medium.

[2] = No. 8: 10 g IL, 1 g microcrystalline cellulose, 90° C., co-heated
[3] = No. 11: 5 g IL, 3 g microcrystalline cellulose, 90° C., co-heated
[4] = No. 3: 5 g IL, 3 g microcrystalline cellulose, 90° C., co-heated

C=CCn1cc[n+](C)c1.[Cl-] [1-allyl-3-methylimidazolium chloride]
Conclusion (dissolution effect of microcrystalline cellulose) [1, 2]: desirable | Dissolution time [1, 2]: 40 min | Conclusion (dissolution effect of microcrystalline cellulose) ([1]; No. 9: 5 g IL, 1 g microcrystalline cellulose, IL heated to 100° C.): common | Dissolution time ([1]; No. 9: 5 g IL, 1 g microcrystalline cellulose, IL heated to 100° C., cellulose added): 20 min | Conclusion (dissolution effect of microcrystalline cellulose) ([1]; No. 10: 5 g IL, 2 g microcrystalline cellulose, 100° C., soaked in IL for 20 h, co-heated): common | Dissolution time ([1]; No. 10: 5 g IL, 2 g microcrystalline cellulose, 100° C., soaked in IL for 20 h, co-heated in water bath): 10 min | Conclusion (dissolution effect of microcrystalline cellulose) [1, 3]: has a poor | Dissolution time [1, 3]: 240 min

CCCCn1cc[n+](C)c1.[Cl-] [1-butyl-3-methylimidazolium chloride]
Conclusion (dissolution effect) (Treatment 1: 10 g IL, 1 g microcrystalline cellulose, co-heated to 90° C., repeated): Poor | Conclusion (dissolution effect) (Treatment 2: 10 g IL, 1 g cellulose, IL heated to 90° C., heating to 90° C. repeated): Common | Conclusion (dissolution effect) (Treatment 3: 10 g IL, 1 g cellulose, IL heated to 90° C., heating to 100° C. repeated): Common | Conclusion (dissolution effect) (Treatment 4: 10 g IL, 1 g cellulose, IL heated to 90° C., heating to 110° C. repeated): Common | Conclusion (dissolution effect) (Treatment 5: 10 g IL, 1 g cellulose, IL heated to 90° C., heating to 120° C. repeated): Common | Conclusion (dissolution effect) (Treatment 6: 10 g IL, 1 g cellulose, 90° C., 120° C., heating to 180° C. repeated): Desirable | Conclusion (dissolution effect) (Treatment 7: 8 g IL, 1 g cellulose, 90° C., 120° C., heating to 180° C. repeated): Desirable | Conclusion (dissolution effect) (Treatment 8: 5 g IL, 1 g cellulose, 90° C., 180° C., heating to 180° C. repeated): Desirable | Conclusion (dissolution effect) (Treatment 9: 5 g IL, 1.5 g cellulose, 90° C., 120° C., heating to 180° C. repeated): Desirable | Conclusion (dissolution effect) (Treatment 10: 5 g IL, 2 g cellulose, 90° C., 120° C., heating to 180° C. repeated): Desirable | Conclusion (dissolution effect) (Treatment 11: 5 g IL, 2.5 g cellulose, 90° C., 120° C., heating to 180° C. repeated): Desirable | Ionic liquid concentration at which the growth of Escherichia coli is inhibited (Escherichia coli): not less than 3% | Growth state of strains (Escherichia coli; ionic solution concentration 1%): Normal | Growth state of strains (Escherichia coli; ionic solution concentration 3%): Slightly inhibited | Growth state of strains (Escherichia coli; ionic solution concentration 4%): Inhibited growth | Growth state of strains (Escherichia coli; ionic solution concentration 5%): Inhibited growth | Growth state of strains (Escherichia coli; ionic solution concentration 6%): No growth | Growth state of strains (Escherichia coli; ionic solution concentration 7%): No growth | Conclusion (dissolution effect of microcrystalline cellulose) ([1]; No. 1: 10 g IL, 1 g microcrystalline cellulose, 90° C., co-heated): desirable | Dissolution time ([1]; No. 1: 10 g IL, 1 g microcrystalline cellulose, 90° C., co-heated, stirred 20 sec every 5 min): 40 min | Conclusion (dissolution effect of microcrystalline cellulose) ([1]; No. 2: 5 g IL, 3 g microcrystalline cellulose, 110° C., IL preheated to liquid state): desirable | Dissolution time ([1]; No. 2: 5 g IL, 3 g microcrystalline cellulose, 110° C., IL preheated to liquid state, mixed by stirring): 1 min | Conclusion (dissolution effect of microcrystalline cellulose) [1, 4]: common | Dissolution time [1, 4]: 240 min | Effect in pretreatment of cellulose ([1]; overall conclusion of Example 1): could well process the cellulose
